Assay results: patent publication US11084800B2 (Achillion Pharmaceuticals, Inc., priority 2017, dated 2021)

target: Human Factor D (Homo sapiens (Human), UniProt P00746); experiment: Human Factor D Assay; assay type: biochemical; settings: Factor D inhibition, assay of Example 10; read-out: IC5 (Stars)
Summary of the method: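 Serum-purified Factor D (80 nM final) preincubated 5 min at room temperature with compound in 50 mM Tris, 1 M NaCl, pH 7.5. Z-L-Lys-SBz and DTNB added at 100 μM each; A405 followed every 30 s for 30 min. IC50 from nonlinear regression of rates versus concentration.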

Sequence of Human Factor D (P00746 26-253): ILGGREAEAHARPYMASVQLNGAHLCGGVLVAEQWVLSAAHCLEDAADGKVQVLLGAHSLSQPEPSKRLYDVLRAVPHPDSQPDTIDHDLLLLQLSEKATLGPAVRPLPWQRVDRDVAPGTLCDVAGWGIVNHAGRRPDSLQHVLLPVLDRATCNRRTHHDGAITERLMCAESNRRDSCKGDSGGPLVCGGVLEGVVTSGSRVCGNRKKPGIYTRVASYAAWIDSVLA

SMILES	IC50
CC(=O)c1nn(CC(=O)N2C[C@H]3C[C@H]3[C@H]2C(=O)Nc2nc(Br)ccc2C)c2c(C)nc(-c3cnc(C)nc3)cc12 [Compound 241, (1R,2S,5S)-3-(2-(3-acetyl-7-methyl-5-(2-methylpyrimidin-5-yl)-1H-pyrazolo[3,4-c]pyridin-1-yl)acetyl)-N-(6-bromo-3-methylpyridin-2-yl)-3-azabicyclo[3.1.0]hexane-2-carboxamide]	< 1 µM
CC(=O)c1nn(CC(=O)N2[C@H](C(=O)Nc3nc(Br)ccc3C)C[C@@]3(CN4C[C@H]5CCC[C@H]5C4)C[C@@H]23)c2cnc(-c3cnc(C)nc3)cc12 [Compound 245, (1R,3S,5R)-2-(2-(3-acetyl-5-(2-methylpyrimidin-5-yl)-1H-pyrazolo[3,4-c]pyridin-1-yl)acetyl)-N-(6-bromo-3-methylpyridin-2-yl)-5-(((3aR,6a5)-hexahydrocyclopenta [c]pyrrol-2(1H)-yl)methyl)-2-azabicyclo[3.1.0]hexane-3-carboxamide]	< 1 µM
CC(=O)c1nn(CC(=O)N2[C@H](C(=O)Nc3nc(Br)ccc3C)C[C@@]3(CN4CC5(CCCC5)C4)C[C@@H]23)c2cnc(-c3cnc(C)nc3)cc12 [Compound 246, (1R,3S,5R)-5-(2-azaspiro[3.4]octan-2-ylmethyl)-2-(2-(3-acetyl-5-(2-methylpyrimidin-5-yl)-1H-pyrazolo[3,4-c]pyridin-1-yl)acetyl)-N-(6-bromo-3-methylpyridin-2-yl)-2-azabicyclo[3.1.0]hexane-3-carboxamide]	< 1 µM
CC(=O)c1nn(CC(=O)N2[C@H](C(=O)Nc3nc(Br)c(F)cc3C)C[C@@]3(CC#N)C[C@@H]23)c2cnc(-c3cnc(C)nc3)cc12 [Compound 249, (1R,3S,5R)-2-(2-(3-acetyl-5-(2-methylpyrimidin-5-yl)-1H-pyrazolo[3,4-c]pyridin-1-yl)acetyl)-N-(6-bromo-5-fluoro-3-methylpyridin-2-yl)-5-(cyanomethyl)-2-azabicyclo[3.1.0]hexane-3-carboxamide]	< 1 µM
CC(=O)c1nn(CC(=O)N2[C@H](C(=O)Nc3nc(Br)c(F)cc3C)C[C@@]3(CN4CC(F)(F)C4)C[C@@H]23)c2cnc(-c3cnc(C)nc3)cc12 [Compound 250, (1R,3S,5R)-2-(2-(3-acetyl-5-(2-methylpyrimidin-5-yl)-1H-pyrazolo[3,4-c]pyridin-1-yl)acetyl)-N-(6-bromo-5-fluoro-3-methylpyridin-2-yl)-5-((3,3-difluoroazetidin-1-yl)methyl)-2-azabicyclo[3.1.0]hexane-3-carboxomide]	< 1 µM
CC(=O)c1nn(CC(=O)N2[C@H](C(=O)Nc3nc(Br)c(F)cc3C)C[C@@]3(CF)C[C@@H]23)c2cnc(-c3cnc(C)nc3)cc12 [Compound 251]	< 1 µM
CC(=O)c1nn(CC(=O)N2[C@H](C(=O)Nc3nc(Br)c(F)cc3C)C[C@@]3(CN4CC5(CCCC5)C4)C[C@@H]23)c2cnc(-c3cnc(C)nc3)cc12 [Compound 252, (1R,3S,5R)-5-(2-azaspirp[3.4]octan-2-ylmethyl)-2-(2-(3-acetyl-5-(2-methylpyrimidin-5-yl)-1H-pyrazole[3,4-c]pyridin-1-yl)acetyl)-N-(6-bromo-5-fluoro-3-methylpyridin-2-yl)-2-azabicyclo[3.1.0]hexane-3-carboxomide]	< 1 µM
CC(=O)c1nn(CC(=O)N2[C@H](C(=O)Nc3nc(Br)c(F)cc3C)C[C@@]3(CN4C[C@H]5CCC[C@H]5C4)C[C@@H]23)c2cnc(-c3cnc(C)nc3)cc12 [Compound 253, (1R,3S,5R)-2-(2-(3-acetyl-5-(2-methylpyrimidin-5-yl)-1H-pyrazolo[3,4-c]pyridin-1-yl)acetyl)-N-(6-bromo-5-fluoro-3-methylpyridin-2-yl)-5-(((3aR,6aS)-hexahydrocyclopenta [c]pyrrol-2(1H)-yl)methyl)-2-azabicyclo[3.1.0]hexane-3-carboxamide]	< 1 µM
CC(=O)c1nn(CC(=O)N2[C@H](C(=O)Nc3nc(Br)c(F)cc3C)C[C@@]3(C)C[C@@H]23)c2cnc(-c3cnc(C)[n+]([O-])c3)cc12 [Compound 254, 5-(3-acetyl-1-(2-((1R,3S,5R)-3-((6-bromo-5-fluoro-3-methylpyridin-2-yl)carbamoyl)-5-methyl-2-azabicyclo[3.1.0]hexane-2-yl)-2-oxoethyl)-1H-pyrazolo[3,4-c]pyridin-5-yl)-2-methylpyrimidine 1-oxide]	< 1 µM
CC(=O)c1nn(CC(=O)N2[C@H](C(=O)Nc3nc(OC(F)(F)F)ccc3C)C[C@@]3(C)C[C@@H]23)c2cnc(-c3cnc(C)nc3)cc12 [Compound 256]	< 1 µM
CC(=O)c1nn(CC(=O)N2[C@H](C(=O)Nc3nc(Br)ccc3CC(C)C)C[C@@]3(C)C[C@@H]23)c2cnc(-c3cnc(C)nc3)cc12 [Compound 258, (1R,3S,5R)-2-(2-(3-acetyl-5-(2-methylpyrimidin-5-yl)-1H-pyrazolo[3,4-c]pyridin-1-yl)acetyl)-N-(6-bromo-3-isobutylpyridin-2-yl)-5-methyl-2-azabicyclo[3.1.0]hexane-3-carboxamide]	< 1 µM
CC(=O)c1nn(CC(=O)N2[C@H](C(=O)Nc3nc(Br)ccc3C)C[C@@]3(CN(CCO)CCO)C[C@@H]23)c2cnc(-c3cnc(C)nc3)cc12 [Compound 262, (1R,3S,5R)-2-(2-(3-acetyl-5-(2-methylpyrimidin-5-yl)-1H-pyrazolo[3,4-c]pyridin-1-yl)acetyl)-5-((bis(2-hydroxyethyl)amino)methyl)-N-(6-bromo-3-methylpyridin-2-yl)-2-azabicyclo[3.1.0] hexane-3-carboxamide]	< 1 µM
CC(=O)c1nn(CC(=O)N2[C@H](C(=O)Nc3nc(Br)c(F)cc3C)C[C@@]3(CN(C)C)C[C@@H]23)c2c(C)cc(-c3cnc(C)nc3)cc12 [Compound 263, (1R,3S,5R)-2-(2-(3-acetyl-7-methyl-5-(2-methylpyrimidin-5-yl)-1H-indazol-1-yl)acetyl)-N-(6-bromo-5-fluoro-3-methylpyridin-2-yl)-5-((dimethylamino)methyl)-2-azabicyclo[3.1.0] hexane-3-carboxamide]	< 1 µM
CC(=O)c1nn(CC(=O)N2[C@H](C(=O)Nc3nc(Br)c(F)cc3C)C[C@@]3(CN(C)C)C[C@@H]23)c2cnc(-c3cnc(C)nc3)cc12 [Compound 264, (1R,3S,5R)-2-(2-(3-acetyl-5-(2-methylpyrimidin-5-yl)-1H-pyrazolo[3,4-c]pyridin-1-yl)acetyl)-N-(6-bromo-5-fluoro-3-methylpyridin-2-yl)-5-((dimethylamino)methyl)-2-azabicyclo[3.1.0] hexane-3-carboxamide]	< 1 µM
CC(=O)c1nn(CC(=O)N2[C@H](C(=O)Nc3nc(Br)c(F)cc3C)C[C@@]3(C)C[C@@H]23)c2c(C(F)(F)F)nc(-c3cnc(C)nc3)cc12 [Compound 271, (1R,3S,5R)-2-(2-(3-acetyl-5-(2-methylpyrimidin-5-yl)-7-(trifluoromethyl)-1H-pyrazolo[3,4-c]pyridin-1-yl)acetyl)-N-(6-bromo-5-fluoro-3-methylpyridin-2-yl)-5-methyl-2-azabicyclo[3.1.0]hexane-3-carboxamide]	< 1 µM
CC(=O)c1nn(CC(=O)N2[C@H](C(=O)Nc3nc(Br)ccc3CN3CC4CC3CO4)C[C@@]3(C)C[C@@H]23)c2cnc(-c3cnc(C)nc3)cc12 (stereo partly drawn) [Compound 277, (1R,3S,5R)-N-(3-(2-oxa-5-azabicyclo[2.2.1]heptan-5-ylmethyl)-6-bromopyridin-2-yl)-2-(2-(3-acetyl-5-(2-methylpyrimidin-5-yl)-1H-pyrazolo[3,4-c]pyridin-1-yl)acetyl)-5-methyl-2-azabicyclo[3.1.0]hexane-3-carboxamide]	< 1 µM
CC(=O)c1nn(CC(=O)N2[C@H](C(=O)Nc3nc(Br)ccc3C)C[C@@]3([C@H](O)CO)C[C@@H]23)c2cnc(-c3cnc(C)nc3)cc12 [Compound 282]	< 1 µM
CC[C@@]12C[C@@H](C(=O)Nc3nc(Br)ccc3C)N(C(=O)Cn3nc(C(C)=O)c4cc(-c5cnc(C)nc5)ccc43)[C@@H]1C2 [Compound 286, (1R,3S,5R)-2-(2-(3-acetyl-5-(2-methylpyrimidin-5-yl)-1H-indazol-1-yl)acetyl)-N-(6-bromo-3-methylpyridin-2-yl)-5-ethyl-2-azabicyclo[3.1.0]hexane-3-carboxamide]	< 1 µM

same assay, conditions: Table 8; Factor D 80 nM, substrate Z-L-Lys-SBz; read-out: IC50

SMILES	IC50
CC(=O)c1nn(CC(=O)N2[C@H](C(=O)Nc3nc(Br)ccc3C)C[C@@]3(C)C[C@@H]23)c2ccc(-c3cnc(CNC(=O)COCCOCCNC(=O)COCCOCCNC(=O)CC[C@H](NC(=O)CCCCCCCCCCCCCCCCC(=O)O)C(=O)O)nc3)cc12 [Compound 242]	< 1 µM
CC(=O)c1nn(CC(=O)N2C[C@@]3(CC(c4ccccc4)=NO3)C[C@H]2C(=O)Nc2nc(Br)ccc2C)c2c(C)cc(-c3cnc(C)nc3)cc12 [Compound 243, (5S,8S)-7-(2-(3-acetyl-7-methyl-5-(2-methylpyrimidin-5-yl)-1H-indazol-1-yl)acetyl)-N-(6-bromo-3-methylpyridin-2-yl)-3-phenyl-1-oxa-2,7-diazaspiro[4.4]non-2-ene-8-carboxamide]	1 to 10 µM
CC(=O)c1nn(CC(=O)N2CC3(CC(C4CCCCC4)=NO3)C[C@H]2C(=O)Nc2nc(Br)ccc2C)c2c(C)cc(-c3cnc(C)nc3)cc12 (stereo partly drawn) [Compound 244, (8S)-7-(2-(3-acetyl-7-methyl-5-(2-methylpyrimidin-5-yl)-1H-indazol-1-yl)acetyl)-N-(6-bromo-3-methylpyridin-2-yl)-3-cyclohexyl-1-oxa-2,7-diazaspiro[4.4]non-2-ene-8-carboxamide]	< 1 µM
C=CCCCC(=O)NC[C@@]12C[C@@H](C(=O)Nc3nc(Br)ccc3C)N(C(=O)Cn3nc(C(C)=O)c4cc(-c5cnc(C)nc5)cc(CCC=C)c43)[C@@H]1C2 [Compound 266, (1R,3S,5R)-2-(2-(3-acetyl-7-(but-3-en-l-yl)-5-(2-methylpyrimidin-5-yl)-1H-indazol-1-yl)acetyl)-N-(6-bromo-3-methylpyridin-2-yl)-5-(hex-5-enamidomethyl)-2-azabicyclo[3.1.0]hexane-3-carboxamide]	< 1 µM
